Measured values published in patent US8614237B2, “Benzofuran-4,5-diones as selective peptide deformylase inhibitors” (Sloan-Kettering Institute for Cancer Research, priority 2009, dated 2013).
≈ marks a conversion by molar mass, not a printed value.

Assays:
HsPDF [1] = target: T1, HsPDF (Homo sapiens, UniProt Q9HBH1); test: HsPDF IC50
T1 construct: A 63 amino acid N-terminally truncated human peptide deformylase (HsPDF); 6His (C); made in house; host or cells: E. coli BL21 (DE3), co-transformed with the GroES/EL chaperone plasmid
Excerpt: Table printed on a drawing sheet, Figure 7
Head of the field: HsPDF IC50
The patent's description of the figure: FIG. 7. Cytotoxicity profiling for the thirty-three (33) derivatives of benzofuran-4,5-diones toward […]. The IC50 in μM for each compound toward each cell line is summarized as a heat map.
Where the first naming reader finds the target: head: HsPDF IC50

EcPDF [2] = tested on: EcPDF
Experimental: Head of the field: EcPDF %I 10uM
(§2) Specificity profiling of the derivatives of benzofuran-4,5-diones.
Where the first naming reader finds the target: head: EcPDF %I 10uM

[3] = tested on: panel of eight cancer cell lines; test: Cytotoxicity profiling of 26 second generation derivatives (Alamar Blue viability assay, nuclei count); assay type: cell-based, human
Experimental: Cytotoxicity profiling for the 26 newly synthesized benzofuran-4,5-diones derivatives was performed on a panel of eight cancer cell lines.
The cell lines HL-60 (human acute promyelocytic leukemia), Jurkat (human acute T cell leukemia), Molt3 (acute lymphoblastic leukemia), CWR22 (prostate carcinoma), K562 (human chronic myeloid leukemia lymphoblasts), and Y79 (human retinoblastoma) were obtained from the ATCC, and cultured following ATCC recommendations. The cell line HL-60/RV+ (a P-glycoprotein-overexpressing multi-drug resistant HL-60 variant selected by continuous exposure to vincristine) was described elsewhere (Weisburg J H, Roepe P D, Dzekunov S, Scheinberg D A: Intracellular pH and multidrug resistance regulate complement-mediated cytotoxicity of nucleated human cells. J Biol Chem 1999; 274:10877-10888). The cell line ALL-3 (acute lymphoblastic leukemia isolated from a patient treated at MSKCC and characterized as Philadelphia chromosome positive) was obtained from Dr. Mark Frattini (MSKCC). The viability assay we used in this study is based on the dye resazurin and commercially sold as Alamar Blue (O'Brien J, Wilson I, Orton T, Pognan F: Investigation of the Alamar Blue (resazurin) fluorescent dye for the assessment of mammalian cell cytotoxicity. Eur J Biochem 2000; 267:5421-5426). Cells were added in 45 μL medium to the pre-plated compounds in 5 μL of 1% DMSO (v/v). After 72 h incubation was added 5 μL Alamar Blue. […] Plates were then fixed and nuclei were stained using Hoechst for the nuclear count proliferation assay. Imaging for Hoechst staining of nuclei count were acquired with an IN Cell Analyzer 2000 epifluorescence automated microscope ([…]) (GE Healthcare, Piscataway, N.J.) equipped with a 4× objective, using D360/40 excitation filter (360 nm excitation peak; +/−40 nm bandpass), HQ535/50 emission filter (535 nm emission peak; +/−50 nm bandpass) and Q505LP dichroic, and exposing fields for 200 milliseconds in the blue channel. Image analysis was conducted with the IN Cell Developer 1.7 software (GE Healthcare) using custom-developed analysis modules. The analysis module used for nuclei count performs object segmentation in the blue channel to automatically define and count the number of nuclei. Data is reported as the sum of imaged nuclei.
In addition of the Alamar Blue viability assay readout, for the adherent cell lines of this panel (CWR22 and Meso47) we performed a direct nuclei count to assess the effect of the novel derivatives on cell proliferation.

[4] = Aqueous solubility limit by laser nephelometry; assay type: physicochemical; settings: aqueous solution (composition not stated), kinetic from dmso stock, upper limit 10 μM
Excerpt: We assessed the aqueous solubility limit for the 26 novel benzofuran-4,5-diones using laser nephelometry. […] Data were compared to standards of known turbidity to assess the solubility limit for each compound.

HsPDF [5] = target: T2, HsPDF (Homo sapiens, UniProt Q9HBH1); test: FP binding assay (fluorescence polarization, probe SKI 267088), specificity profiling and dose response
T2 construct: A 63 amino acid N-terminally truncated human peptide deformylase (HsPDF); 6His (C); made in house; host or cells: E. coli BL21 (DE3), co-transformed with the GroES/EL chaperone plasmid
T2 sequence (Q9HBH1 64-243 limits assumed): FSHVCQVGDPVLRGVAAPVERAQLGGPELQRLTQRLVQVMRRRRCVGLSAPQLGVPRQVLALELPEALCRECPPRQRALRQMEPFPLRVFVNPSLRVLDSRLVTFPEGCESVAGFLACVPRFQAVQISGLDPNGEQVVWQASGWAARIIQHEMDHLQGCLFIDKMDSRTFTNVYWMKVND
Experimental: Specificity profiling was performed on the newly synthesized benzofuran-4,5-diones using the aforementioned FP profiling method (Antczak et al., J. Biomol. Screen 2008, 13, 285-294).
Compounds or high/low controls were added to the wells at a volume of 2 μL. […] High controls consisted of 1% DMSO (v/v). MBP-HsPDF or the metalloprotease to be tested was diluted in the assay buffer (25 mM Hepes, 50 mM NaCl, 0.005% Tween 20, pH 7.5), and 10 μL where added to the 384-well microplates (Low Volume Round Bottom NBS Treated, Corning) to achieve a final concentration of 1 μM. After addition of MBP-HsPDF to the tested compounds, the 384-well microplates were preincubated for one hour at room temperature. Then 8 μL of the probe SKI 267088 in solution in assay buffer was added to the wells at a final concentration of 5 nM. After one hour incubation at room temperature, the fluorescence polarization was read using the Amersham LEADseeker™ Multimodality Imaging System equipped with Cy3 excitation/emission filters and Cy3 FP epi-mirror. Quench tests were performed in duplicate by measuring the fluorescence polarization of wells containing the probe, pre- and post-addition of the compounds at 100 μM.
In each assay, the signal inhibition induced by the compounds was expressed as a percentage compared to high and low controls located on the same plate, as defined as % Inhibition=(high control average−read value)/(high control average−low control average)×100. The dose response was assessed in duplicate and using 12 point doubling dilutions with 100 μM compound concentration as the upper limit. The dose response curve for each set of data was fitted separately, and the two IC50 values obtained were averaged.

[6] = tested on: panel of cancer cell lines; test: Cytotoxicity assay (Alamar Blue), primary hits and first generation derivatives; assay type: cell-based, human; settings: first generation, panel of nine cancer cell lines
Experimental: Cytotoxicity assays were performed in order to profile the thirty-three newly synthesized benzofuran-4,5-dione derivatives on a panel of nine cancer cell lines. A heat map summarizes the calculated IC50s ([…]). Twelve out of thirteen derivatives potent toward HsPDF were also cytotoxic toward several cancer cell lines (FIG. 7).
The cell lines HL-60 (human acute promyelocytic leukemia), Jurkat (human acute T cell leukemia), Molt3 (acute lymphoblastic leukemia), CWR22 (prostate carcinoma), HEK293 (human embryonic kidney), K562 (human chronic myeloid leukemia lymphoblasts), Y79 (human retinoblastoma) were obtained from the ATCC, and cultured following ATCC recommendations. The cell line NCEB-1 (human non-hodgkin lymphoma) was obtained from Dr. O'Connor (Sloan-Kettering Institute). The cell line HL-60/RV+ (a P-glycoprotein-overexpressing multi-drug resistant HL-60 variant selected by continuous exposure to vincristine) was described elsewhere (Weisburg et al., J. Biol. Chem. 1999, 274, 10877-10888). The cell line ALL-3 (acute lymphoblastic leukemia isolated from a patient treated at MSKCC and characterized as Philadelphia chromosome positive) was obtained from Dr. Mark Frattini (MSKCC). The assay used for the cytotoxicity studies is based on the dye resazurin and commercially sold as Alamar Blue (O'Brien et al., Eur. J. Biochem. 2000, 267, 5421-5426). […]

Jurkat cell line = test: Cytotoxicity in vitro toward Jurkat cell line; assay type: cell-based; settings: Homo sapiens, acute T-cell leukemia
Excerpt: (§1) The cell lines HL-60 (human acute promyelocytic leukemia), Jurkat (human acute T cell leukemia), Molt3 (acute lymphoblastic leukemia), CWR22 (prostate carcinoma), HEK293 (human embryonic kidney), K562 (human chronic myeloid leukemia lymphoblasts), Y79 (human retinoblastoma) were obtained from the ATCC, and cultured following ATCC recommendations. The cell line NCEB-1 (human non-hodgkin lymphoma) was obtained from Dr. O'Connor (Sloan-Kettering Institute). The cell line HL-60/RV+ (a P-glycoprotein-overexpressing multi-drug resistant HL-60 variant selected by continuous exposure to vincristine) was described elsewhere (Weisburg et al., J. Biol. Chem. 1999, 274, 10877-10888). The cell line ALL-3 (acute lymphoblastic leukemia isolated from a patient treated at MSKCC and characterized as Philadelphia chromosome positive) was obtained from Dr. Mark Frattini (MSKCC). The assay used for the cytotoxicity studies is based on the dye resazurin and commercially sold as Alamar Blue (O'Brien et al., Eur. J. Biochem. 2000, 267, 5421-5426). Cells were added in 45 μL medium to the pre-plated compounds in 5 μL of 1% DMSO (v/v). After incubation for 72 hours, 5 μL of Alamar Blue was added.

[7] = In vivo toxicity of benzofuran-4,5-diones; settings: i.p. twice a day for four days, 1 to 10 mg/kg, monitored 14 days
Experimental: Lead compound SKC-BF-13 and another newly synthesized derivative SKC-BF-02 were selected in order to assess the in vivo toxicity of benzofuran-4,5-diones. Three mice per group were treated with BF-13 at three doses (i.e., 1, 5 and 10 mg/kg) or with SKC-BF-02 at two doses (i.e., 1 and 10 mg/kg). A control group of two mice were treated with the vehicle (i.e., 20% DMSO v/v). Mice were treated twice a day for four days via intraperitoneal administration. Their weight was monitored along with any other signs of toxicity for fourteen days.
ICR/SCID male mice about three weeks old were used in this study. Three mice per group were treated with BF-13 at three doses (i.e., 1, 5 and 10 mg/kg) or with SKC-BF-02 at two doses (i.e., 1 and 10 mg/kg). A control group of two mice were treated with the vehicle (20% DMSO v/v). Mice were treated twice a day for four days via intraperitoneal administration. Their weight was monitored as well as any other sign of toxicity for 14 days.
SKI 396848 (SKC-BF-12) and SKI 396840 (SKC-BF-02) were synthesized during the first round of exploratory chemistry to assess the in vivo toxicity of benzofuran-4,5-diones (as shown in FIG. 8). Three ICR/SCID male mice per group were treated with SKI 396848 at three doses: 1, 5 and 10 mg/kg or with SKI 396840 at two doses: 1 and 10 mg/kg. A control group of two mice was treated with the vehicle (20% DMSO v/v). Mice were treated twice a day for four days i.p. Their weight was monitored as well as any other sign of toxicity for 14 days. One treated mouse per group was evaluated by a pathologist.

Jurkat tumors = test: In vivo study, mouse xenograft with Jurkat tumors; settings: 5, 15 and 30 mg/kg i.p. twice a week for three weeks
Experimental: In this study, higher doses could be achieved by injecting the drug in a small volume (100 μL) of 100% DMSO (v/v). Three mice per group were treated at three doses: 5, 15 and 30 mg/kg. A control group of three mice was treated with the vehicle (100% DMSO v/v). Mice were treated i.p. twice a week for three weeks. Unfortunately, a large variability in the growth of the Jurkat tumors caused data interpretation to be difficult.

MMP-1 = MMP-1 %I 100uM
Experimental: Table printed on a drawing sheet, Figure 5
Head of the field: MMP-1 %I 100uM
Footnotes: -26 124 % inhibition
The patent's description of the figure: FIG. 5.
Where the first naming reader finds the target: head: MMP-1 %I 100uM

EcPDF [8] = tested on: EcPDF; remark: listed apart in the source
Experimental: Head of the field: EcPDF %I 100uM
as §2
Where the first naming reader finds the target: head: EcPDF %I 100uM

ALL3 cells = test: Cytotoxicity in vitro toward ALL3 cells; assay type: cell-based; settings: Homo sapiens
Excerpt: as §1

ALL-3 cells = test: In vivo efficacy, mouse xenograft model using ALL-3 cells; settings: 1 and 3 mg/kg i.p. twice a week for two weeks
Experimental: The in vivo efficacy of SKI 396848 (SKC-BF-12) was assessed in a mouse xenograft model using ALL-3 cells isolated from a patient with acute lymphoblastic leukemia refractory to imatinib. Three mice per group were treated at two doses: 1 and 3 mg/kg. A control group of three mice was treated with the vehicle (20% DMSO v/v). Mice were treated twice a week for two weeks i.p. Their weight was monitored as well as any other sign of toxicity for 14 days. […] Nonetheless, the observed difference between the treated groups and the control group was significant, and our study provides a solid proof of concept for the use of benzofuran-4,5-dione based HsPDF inhibitors as novel antitumor agents in vivo.

SMILES | IC50 (HsPDF [1]) [µM] | EcPDF %I 10uM (EcPDF [2]) [%I] | signs of toxicity in vivo (weight and other signs) [7] | MMP-1 %I 100uM (MMP-1) [%I] | further results
COc1ccc(C(=O)c2coc3c2C(=O)C(=O)C(Cl)=C3)cc1 [SKC-BF-04, 6-Chloro-3-(4-methoxybenzoyl)-benzofuran-4,5-dione] | 40 | -6 |  |  | 
O=C1C(=O)c2c(C(=O)c3ccccc3)coc2C(Cl)=C1Cl [SKC-BF-09, 3-Benzoyl-6,7-dichloro-benzofuran-4,5-dione] | 45 | 43 |  |  | 
O=C1C(=O)c2c(C(=O)c3ccc(Cl)c(Cl)c3)coc2C(Cl)=C1Cl [SKI 417516, 6,7-dichloro-3-(3,4-dichlorobenzoyl)benzofuran-4,5-dione] |  |  |  |  | activity against the cell lines of the panel, second generation [3]: active against all cell lines of our panel except Meso47; solubility [4]: 5 µM (≈ 1.95 µg/mL)
COc1cc(C(=O)c2coc3c2C(=O)C(=O)C(Br)=C3Br)cc(OC)c1OC [SKC-BF-13, 6,7-Dibromo-3-(3,4,5-trimethoxy-benzoyl)-benzofuran-4,5-dione] |  | 32 | none of the treatments induced any sign of toxicity | 38 | IC50 (HsPDF [5]; dose response, 12 point doubling dilutions, upper limit 100 μM): 5.2 µM; IC50 ([6]; Homo sapiens, SKC-BF-13: on four cell lines, read-out: cytotoxicity IC50, Alamar Blue viability assay): < 10 µM; IC50 (Jurkat cell line): 3 µM; body weight of treated groups (Jurkat tumors): no loss of weight; EcPDF %I 100uM (EcPDF [8]): 32 %I
COc1ccc(C(=O)c2coc3c2C(=O)C(=O)C(Br)=C3Br)cc1OC [SKC-BF-12, 6,7-Dibromo-3-(3,4-dimethoxy-benzoyl)-benzofuran-4,5-dione] |  | 35 | None of the treatments were found to induce any signs of toxicity | 46 | IC50 (ALL3 cells): 36 µM; tumor progression in ALL-3 xenograft (ALL-3 cells): only a slight delay in tumor progression
COc1ccc(C(=O)c2coc3c2C(=O)C(=O)C(Cl)=C3Cl)cc1OC [SKC-BF-10, 6,7-Dichloro-3-(3,4-dimethoxy-benzoyl)-benzofuran-4,5-dione] |  | 24 |  | 46 | activity toward HsPDF, FP assay (HsPDF [5]; specificity profiling / dose response): potent HsPDF inhibitor; cytotoxicity toward cancer cell lines [6]: not very active toward any cancer cell line tested
